Where a name gives a salt, the structure may show the parent alone.

By melting point is commonly meant the temperature of the solid-liquid transition.

`O=S1(=O)c2ccccc2N(Cc2cnc[nH]2)CCN1Cc1cccc2ccccc12` (as salt: hydrochloride) [Example 1, 2,3,4,5-Tetrahydro-5-(1H-imidazol-4-ylmethyl)-2-(1-naphthalenylmethyl)-1,2,5-benzothiadiazepine, 1,1-dioxide, monohydrochloride]: the melting point was found to be 128 °C.

Regarding `O=S1(=O)c2ccccc2N(Cc2cnc[nH]2)CCN1CCc1ccccc1` (as salt: hydrochloride) [Example 2, 2,3,4,5-Tetrahydro-5-(1H-imidazol-4-ylmethyl)-2-(2-phenylethyl)-1,2,5-benzothiadiazepine, 1,1-dioxide, monohydrochloride], the melting point turned out to be 95 °C.

For the compound `O=S1(=O)NC(Cc2ccccc2)CN(Cc2cnc[nH]2)c2ccc(Br)cc21` (stereo not shown) (as salt: hydrochloride) [Example 9, N-[2,3,4,5-Tetrahydro-8-bromo-5-(1H-imidazol-4-ylmethyl)-3-(phenylmethyl)-1,2,5-benzothiadiazepine, 1,1-dioxide, monohydrochloride], the melting point worked out at 180 °C.

In the case of `CN1C(Cc2ccccc2)CN(Cc2cnc[nH]2)c2ccc(Br)cc2S1(=O)=O` (stereo not shown) (as salt: hydrochloride) [Example 10, 2,3,4,5-Tetrahydro-8-bromo-2-methyl-5-(1H-imidazol-4-ylmethyl)-3-(phenylmethyl)-1,2,5-benzothiadiazepine, 1,1-dioxide, monohydrochloride], the melting point was determined as 140 °C.

The values are drawn from patent publication US6624157B2, “Thiadioxobenzodiazepine inhibitors of farnesyl protein transferase” (Bristol-Myers Squibb Company, priority 1996, dated 2003).
